In US20110044938A1 (NYCOMED GMBH, priority 2006, published 2011):

Columns and labels:
[1] = test system: subclones of RKO colon adenocarcinoma cells (RKOp27 or RKOp21) arrested by Ponasterone A; experiment: Alamar Blue cell viability assay, cell cycle specific mode of action: cells arrested by ectopic p27Kip1 induced by Ponasterone A versus proliferating cells; format: cell-based; settings: Homo sapiens, RKO p27 induced (arrested) cells, 10 μM Ponasterone A, 72 hours, value = class bound given in Table A, read-out: −logIC50 RKO p27 induced (arrested) (converted)
Protocol: To determine the cell cycle specific mode of action, subclones of RKO colon adenocarcinoma cells (RKOp27 or RKOp21 as described by Schmidt et al. in Oncogene 19, 2423-2429; 2000) are seeded into 96 well flat bottom plates at a density of 15000 cells per well in a volume of 50 μl per well in DMEM growth medium with 10% FCS containing 10 μM Ponasterone A. 24 hours after seeding the 50 μl each of the compound dilutions in DMEM medium are added into each well of the 96 Well plate. Each compound dilution is tested as quadruplicates. Wells containing untreated control cells are filled with 50 μl DMEM medium containing 1% DMSO. The cells are then incubated with the substances for 72 hours at 37° C. in a humidified athmosphere containing 5% carbon dioxide. To determine the viability of the cells, 10 μl of an Alamar Blue solution (Biosource) are added and the fluorescence was measured at an extinction of 544 nm and an emission of 590 nm. For the calculation of the cell viability the emission value from untreated cells is set as 100% viability and the emission rates of treated cells are set in relation to the values of untreated cells. Viabilities are expressed as % values. Viability is compared of proliferating cells grown in the absence of the inducer Ponasterone A, versus viability of cells arrested by the expression of ectopic p27Kip1 induced by Ponasterone A.
(§1) Representative −log IC50 [mol/l] values for anti-proliferation/cytotoxicity determined in the mentioned assays follow from the following table A, in which the numbers of the compound correspond to the numbers of the examples.

[2] = test system: RKO (RKOp27) human colon adenocarcinoma cells; experiment: Alamar Blue cell viability assay, anti-proliferative/cytotoxic activity on proliferating RKO subclones; format: cell-based; settings: RKOp27, 72 h, RKO p27 uninduced (proliferating) cells, value = class bound given in Table A, read-out: −logIC50 RKO p27 uninduced (proliferating) (converted)
Protocol: The anti-proliferative/cytotoxic activity of the compounds described herein, can be tested on subclones of RKO (RKOp27) human colon adenocarcinoma cells (Schmidt et al., Oncogene 19, 2423-2429; 2000) using the Alamar Blue cell viability assay (described in O'Brien et al. Eur J Biochem 267, 5421-5426, 2000). The compounds are dissolved as 20 mM solutions in dimethylsulfoxide (DMSO) and subsequently diluted in semi-logarithmic steps. DMSO dilutions are further diluted 1:100 into Dulbecco's modified Eagle's medium (DMEM) containing 10% fetal calf serum to a final concentration twice as much as the final concentration in the test. RKO subclones are seeded into 96 well flat bottom plates at a density of 5000 cells per well in a volume of 50 μl per well. 24 hours after seeding the 50 μl each of the compound dilutions in DMEM medium are added into each well of the 96 Well plate. Each compound dilution is tested as quadruplicates. Wells containing untreated control cells are filled with 50 μl DMEM medium containing 1% DMSO. The cells are then incubated with the substances for 72 hours at 37° C. in a hunified atmosphere containing 5% carbon dioxide. To determine the viability of the cells, 10 μl of an Alamar Blue solution (Biosource) are added and the fluorescence is measured at an extinction of 544 nm and an emission of 590 nm. For the calculation of the cell viability the emission value from untreated cells is set as 100% viability and the emission rates of treated cells are set in relation to the values of untreated cells. Viabilities are expressed as % values.
The corresponding IC50 values of the compounds for anti-proliferative/cytotoxic activity are determined from the concentration-effect curves.
as §1

| IC50 [1] [nM] | SMILES | IC50 [2] [nM] |
| --- | --- | --- |
| ≥ 100000 | Cc1cc(CNC(=O)OCC2CCc3c(sc(NC(=O)/C=C/c4cccnc4)c3C#N)C2)no1 (stereo not drawn) [Example 47, (5-Methyl-isoxazol-3-ylmethyl)-carbamic acid 3-cyano-2-((E)-3-pyridin-3-yl-allanoylamino)-4,5,6,7-tetrahydro-benzo[b]thiophen-6-ylmethyl ester] | ≤ 501 |
| ≥ 100000 | Cc1cc(CNC(=O)OC[C@H]2CCc3c(sc(NC(=O)/C=C/c4cccnc4)c3C#N)C2)no1 [Example 47a, (S)-(5-Methyl-isoxazol-3-ylmethyl)-carbamic acid 3-cyano-2-((E)-3-pyridin-3-yl-allanoylamino)-4,5,6,7-tetrahydro-benzo[b]thiophen-6-ylmethyl ester] | ≤ 501 |
| ≥ 100000 | Cc1cc(CNC(=O)OC[C@@H]2CCc3c(sc(NC(=O)/C=C/c4cccnc4)c3C#N)C2)no1 [Example 47b, (5-Methyl-isoxazol-3-ylmethyl)-carbamic acid (R)-3-cyano-2-((E)-3-pyridin-3-yl-allanoylamino)-4,5,6,7-tetrahydro-benzo[b]thiophen-6-ylmethyl ester] | ≤ 501 |
| ≥ 100000 | COC(=O)OCC1CCc2c(sc(NC(=O)/C=C/c3cccnc3)c2C#N)C1 (stereo not drawn) [Example 49, Carbonic acid 3-cyano-2-((E)-3-pyridin-3-yl-allanoylamino)-4,5,6,7-tetrahydro-benzo[b]thiophen-6-ylmethyl ester methyl ester] | 501 to 2000 |
| ≥ 100000 | Cn1cc(CNC(=O)OCC2CCc3c(sc(NC(=O)/C=C/c4cccnc4)c3C#N)C2)cn1 (stereo not drawn) [Example 50, (1-Methyl-1H-pyrazol-4-ylmethyl)-carbamic acid 3-cyano-2-((E)-3-pyridin-3-yl-allanoylamino)-4,5,6,7-tetrahydro-benzo[b]thiophen-6-ylmethyl ester] | ≤ 501 |
| ≥ 100000 | Cn1cccc1CNC(=O)OCC1CCc2c(sc(NC(=O)/C=C/c3cccnc3)c2C#N)C1 (stereo not drawn) [Example 51, (1-Methyl-1H-pyrrol-2-ylmethyl)-carbamic acid 3-cyano-2-((E)-3-pyridin-3-yl-allanoylamino)-4,5,6,7-tetrahydro-benzo[b]thiophen-6-ylmethyl ester] | 501 to 2000 |
| ≥ 100000 | CCn1nccc1CNC(=O)OCC1CCc2c(sc(NC(=O)/C=C/c3cccnc3)c2C#N)C1 (stereo not drawn) [Example 52, (2-Ethyl-2H-pyrazol-3-ylmethyl)-carbamic acid 3-cyano-2-((E)-3-pyridin-3-yl-allanoylamino)-4,5,6,7-tetrahydro-benzo[b]thiophen-6-ylmethyl ester] | 501 to 2000 |
| ≥ 100000 | Cn1cnc(CNC(=O)OC2CCc3c(sc(NC(=O)/C=C/c4cccnc4)c3C#N)C2)c1 (stereo not drawn) [Example 53, (1-Methyl-1H-imidazol-4-ylmethyl)-carbamic acid 3-cyano-2-((E)-3-pyridin-3-yl-allanoylamino)-4,5,6,7-tetrahydro-benzo[b]thiophen-6-yl ester] | 501 to 2000 |
| ≥ 100000 | Cc1nn(C)cc1CNC(=O)OCC1CCc2c(sc(NC(=O)/C=C/c3cccnc3)c2C#N)C1 (stereo not drawn) [Example 54, (1,3-Dimethyl-1H-pyrazol-4-ylmethyl)-carbamic acid 3-cyano-2-((E)-3-pyridin-3-yl-allanoylamino)-4,5,6,7-tetrahydro-benzo[b]thiophen-6-ylmethyl ester] | ≤ 501 |
| ≥ 100000 | COC(=O)OC1CCc2c(sc(NC(=O)/C=C/c3cccnc3)c2C#N)C1 (stereo not drawn) [Example 55, Carbonic acid 3-cyano-2-((E)-3-pyridin-3-yl-allanoylamino)-4,5,6,7-tetrahydro-benzo[b]thiophen-6-yl ester methyl ester] | ≤ 501 |
| ≥ 100000 | Cn1cccc1CNC(=O)OC1CCc2c(sc(NC(=O)/C=C/c3cccnc3)c2C#N)C1 (stereo not drawn) [Example 56, (1-Methyl-1H-pyrrol-2-ylmethyl)-carbamic acid 3-cyano-2-((E)-3-pyridin-3-yl-allanoylamino)-4,5,6,7-tetrahydro-benzo[b]thiophen-6-yl ester] | ≤ 501 |
| ≥ 100000 | Cc1nn(C)cc1CNC(=O)OC1CCc2c(sc(NC(=O)/C=C/c3cccnc3)c2C#N)C1 (stereo not drawn) [Example 57, (1,3-Dimethyl-1H-pyrazol-4-ylmethyl)-carbamic acid 3-cyano-2-((E)-3-pyridin-3-yl-allanoylamino)-4,5,6,7-tetrahydro-benzo[b]thiophen-6-yl ester] | ≤ 501 |
| ≥ 100000 | Cc1oncc1CNC(=O)OC1CCc2c(sc(NC(=O)/C=C/c3cccnc3)c2C#N)C1 (stereo not drawn) [Example 58, (5-Methyl-isoxazol-4-ylmethyl)-carbamic acid 3-cyano-2-((E)-3-pyridin-3-yl-allanoylamino)-4,5,6,7-tetrahydro-benzo[b]thiophen-6-yl ester] | 501 to 2000 |
| ≥ 100000 | Cc1nocc1CNC(=O)OC1CCc2c(sc(NC(=O)/C=C/c3cccnc3)c2C#N)C1 (stereo not drawn) [Example 59, (3-Methyl-isoxazol-4-ylmethyl)-carbamic acid 3-cyano-2-((E)-3-pyridin-3-yl-allanoylamino)-4,5,6,7-tetrahydro-benzo[b]thiophen-6-yl ester] | ≤ 501 |
| ≥ 100000 | N#Cc1c(NC(=O)/C=C/c2cccnc2)sc2c1CCC(OC(=O)NCc1ccno1)C2 (stereo not drawn) [Example 60, Isoxazol-5-ylmethyl-carbamic acid 3-cyano-2-((E)-3-pyridin-3-yl-allanoylamino)-4,5,6,7-tetrahydro-benzo[b]thiophen-6-yl ester] | 501 to 2000 |
| ≥ 100000 | N#Cc1c(NC(=O)/C=C/c2cccnc2)sc2c1CCC(OC(=O)N1CCOCC1)C2 (stereo not drawn) [Example 61, Morpholine-4-carboxylic acid 3-cyano-2-((E)-3-pyridin-3-yl-allanoylamino)-4,5,6,7-tetrahydro-benzo[b]thiophen-6-yl ester] | ≤ 501 |
| ≥ 100000 | N#Cc1c(NC(=O)/C=C/c2cccnc2)sc2c1CCC(OC(=O)N1CCCC1)C2 (stereo not drawn) [Example 62, Pyrrolidine-1-carboxylic acid 3-cyano-2-((E)-3-pyridin-3-yl-allanoylamino)-4,5,6,7-tetrahydro-benzo[b]thiophen-6-yl ester] | ≤ 501 |
| ≥ 100000 | N#Cc1c(NC(=O)/C=C/c2cccnc2)sc2c1CCC(COC(=O)NCC1CCCO1)C2 (stereo not drawn) [Example 63, (Tetrahydro-furan-2-ylmethyl)-carbamic acid 3-cyano-2-((E)-3-pyridin-3-yl-allanoylamino)-4,5,6,7-tetrahydro-benzo[b]thiophen-6-ylmethyl ester] | 501 to 2000 |
| ≥ 100000 | Cc1nocc1CNC(=O)OCC1CCc2c(sc(NC(=O)/C=C/c3cccnc3)c2C#N)C1 (stereo not drawn) [Example 64, (3-Methyl-isoxazol-4-ylmethyl)-carbamic acid 3-cyano-2-((E)-3-pyridin-3-yl-allanoylamino)-4,5,6,7-tetrahydro-benzo[b]thiophen-6-ylmethyl ester] | 501 to 2000 |
| ≥ 100000 | N#Cc1c(NC(=O)/C=C/c2cccnc2)sc2c1CCC(COC(=O)NCc1nccs1)C2 (stereo not drawn) [Example 65, Thiazol-2-ylmethyl-carbamic acid 3-cyano-2-((E)-3-pyridin-3-yl-allanoylamino)-4,5,6,7-tetrahydro-benzo[b]thiophen-6-ylmethyl ester] | 501 to 2000 |
| ≥ 100000 | Cc1nc(CNC(=O)OCC2CCc3c(sc(NC(=O)/C=C/c4cccnc4)c3C#N)C2)cs1 (stereo not drawn) [Example 66, (2-Methyl-thiazol-4-ylmethyl)-carbamic acid 3-cyano-2-((E)-3-pyridin-3-yl-allanoylamino)-4,5,6,7-tetrahydro-benzo[b]thiophen-6-ylmethyl ester] | ≤ 501 |
